The first assay addresses HPK1 (Homo sapiens, UniProt Q92918). Nature of the assay: HPK1 Biochemical Assay (ADP-Glo luminescence; low ATP 10 μM or high ATP 200 μM). To be noted: 2 nM HPK1, 10 μM ATP; read-out: Biochemical Potency (low ATP).
Sequence of HPK1 (Q92918 whole entry, species assumed): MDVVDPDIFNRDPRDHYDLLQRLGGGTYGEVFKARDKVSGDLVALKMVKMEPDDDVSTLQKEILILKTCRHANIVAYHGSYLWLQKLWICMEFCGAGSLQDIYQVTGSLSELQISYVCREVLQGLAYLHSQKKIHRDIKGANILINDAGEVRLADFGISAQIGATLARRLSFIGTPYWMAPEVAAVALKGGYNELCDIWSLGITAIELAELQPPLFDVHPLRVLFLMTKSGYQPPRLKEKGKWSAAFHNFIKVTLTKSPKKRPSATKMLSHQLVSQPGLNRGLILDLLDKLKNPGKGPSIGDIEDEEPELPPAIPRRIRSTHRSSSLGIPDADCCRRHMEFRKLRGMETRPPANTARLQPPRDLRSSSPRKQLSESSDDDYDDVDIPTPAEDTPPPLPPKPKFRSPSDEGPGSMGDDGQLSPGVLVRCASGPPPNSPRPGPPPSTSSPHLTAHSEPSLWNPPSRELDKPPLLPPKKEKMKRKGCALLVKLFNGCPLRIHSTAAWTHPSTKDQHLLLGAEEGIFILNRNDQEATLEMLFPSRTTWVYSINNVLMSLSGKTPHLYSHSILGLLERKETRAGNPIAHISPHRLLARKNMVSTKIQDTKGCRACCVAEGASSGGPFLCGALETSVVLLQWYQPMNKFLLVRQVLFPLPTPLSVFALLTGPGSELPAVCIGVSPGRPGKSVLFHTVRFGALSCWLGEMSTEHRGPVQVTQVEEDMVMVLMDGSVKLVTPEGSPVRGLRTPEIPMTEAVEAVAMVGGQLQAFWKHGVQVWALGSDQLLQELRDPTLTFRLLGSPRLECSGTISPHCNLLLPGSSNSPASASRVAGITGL
For the molecule `Cc1ccc(Nc2cc3nc(-n4nccc4C)sc3cn2)nc1N1CCNCC1` [Example 204, 5-Methyl-N-[2-(5-methyl-1H-pyrazol-1-yl)-[1,3]thiazolo[5,4-c]pyridin-6-yl]-6-(piperazin-1-yl)pyridin-2-amine], the IC50 is less than 100 nM.

In the case of `CN1C[C@@H]2C[C@H]1CN2c1cncc(Nc2cc3nc(-c4ncco4)sc3cn2)n1` [Example 156, 6-[(1S,4S)-5-Methyl-2,5-diazabicyclo[2.2.1]heptan-2-yl]-N-[2-(1,3-oxazol-2-yl)-[1,3]thiazolo[5,4-c]pyridin-6-yl]pyrazin-2-amine], the IC50 is less than 100 nM.

For `CN1C[C@@H]2C[C@H]1CN2c1cncc(Nc2cc3nc(-c4ccncc4)sc3cn2)n1` [Example 146, 6-[(1S,4S)-5-Methyl-2,5-diazabicyclo[2.2.1]heptan-2-yl]-N-[2-(pyridin-4-yl)-[1,3]thiazolo[5,4-c]pyridin-6-yl]pyrazin-2-amine], the IC50 is less than 100 nM.

Take `CN1C[C@@H]2C[C@H]1CN2c1cncc(Nc2cc3nc(-c4cccc(N5CCCC5=O)c4)sc3cn2)n1` [Example 143, 1-{3-[6-({6-[(1S,4S)-5-Methyl-2,5-diazabicyclo[2.2.1]heptan-2-yl]pyrazin-2-yl}amino)-[1,3]thiazolo[5,4-c]pyridin-2-yl]phenyl}pyrrolidin-2-one]: the IC50 was less than 100 nM.

`CN(C)C(=O)c1cc(-c2nc3cc(Nc4ccnc(N5C[C@@H]6C[C@H]5CN6C)n4)ncc3s2)ccn1` [Example 127, N,N-Dimethyl-4-[6-({2-[(1S,4S)-5-methyl-2,5-diazabicyclo[2.2.1]heptan-2-yl]pyrimidin-4-yl}amino)-[1,3]thiazolo[5,4-c]pyridin-2-yl]pyridine-2-carboxamide]: the IC50 was less than 100 nM.

Regarding `Cc1cc(Nc2cc3nc(-c4ccncc4)sc3cn2)nc(O[C@H]2CCNC2)c1` [Example 166, 4-Methyl-N-[2-(pyridin-4-yl)-[1,3]thiazolo[5,4-c]pyridin-6-yl]-6-[(3S)-pyrrolidin-3-yloxy]pyridin-2-amine], the IC50 was less than 100 nM.

As to `Cc1cc(Nc2cc3nc(-c4ccc(F)cc4)sc3cn2)nc(O[C@H]2CCNC2)c1` [Example 188, N-[2-(4-Fluorophenyl)-[1,3]thiazolo[5,4-c]pyridin-6-yl]-4-methyl-6-[(3S)-pyrrolidin-3-yloxy]pyridin-2-amine], the IC50 is less than 100 nM.

As for `Cc1cccnc1-c1nc2cc(Nc3ccc(C(F)(F)F)c(CN4CCCC4)n3)ncc2s1` [Example 59, N-[2-(3-Methylpyridin-2-yl)-[1,3]thiazolo[5,4-c]pyridin-6-yl]-6-[(pyrrolidin-1-yl)methyl]-5-(trifluoromethyl)pyridin-2-amine], the IC50 was 100 to 1000 nM.

On to `Cc1cccnc1-c1nc2cc(Nc3ccc(C)c(N4C[C@H]5CC[C@@H](C4)[C@H]5O)n3)ncc2s1` [Example 106, (1R,5S,8S)-3-(3-Methyl-6-{[2-(3-methylpyridin-2-yl)-[1,3]thiazolo[5,4-c]pyridin-6-yl]amino}pyridin-2-yl)-3-azabicyclo[3.2.1]octan-8-ol], for which the IC50 was less than 100 nM.

Regarding `CN1C[C@@H]2C[C@H]1CN2c1nccc(Nc2cc3nc(-c4ccnc(N5CC[C@@H](F)C5)c4)sc3cn2)n1` [Example 267, N-(2-{2-[(3R)-3-Fluoropyrrolidin-1-yl]pyridin-4-yl}-[1,3]thiazolo[5,4-c]pyridin-6-yl)-2-[(1S,4S)-5-methyl-2,5-diazabicyclo[2.2.1]heptan-2-yl]pyrimidin-4-amine], the IC50 is less than 100 nM.

`CN1C[C@@H]2C[C@H]1CN2c1nccc(Nc2cc3nc(-c4cccc(C(=O)N5CCCC5)c4)sc3cn2)n1` [Example 126, 2-[(1S,4S)-5-Methyl-2,5-diazabicyclo[2.2.1]heptan-2-yl]-N-{2-[3-(pyrrolidine-1-carbonyl)phenyl]-[1,3]thiazolo[5,4-c]pyridin-6-yl}pyrimidin-4-amine]: the IC50 is less than 100 nM.

For the molecule `Cc1cccnc1-c1nc2cc(Nc3ccnc(N4C[C@@H]5C[C@H]4CN5)n3)ncc2s1` [Example 149, 2-[(1S,4S)-2,5-Diazabicyclo[2.2.1]heptan-2-yl]-N-[2-(3-methylpyridin-2-yl)-[1,3]thiazolo[5,4-c]pyridin-6-yl]pyrimidin-4-amine], the IC50 is less than 100 nM.

On to `Cc1cccnc1-c1nc2cc(Nc3ccc(C)c(N4CC[C@H](N)C4)n3)ncc2s1` [Example 75, 6-[(3S)-3-Aminopyrrolidin-1-yl]-5-methyl-N-[2-(3-methylpyridin-2-yl)-[1,3]thiazolo[5,4-c]pyridin-6-yl]pyridin-2-amine], for which the IC50 was less than 100 nM.

On to `N#Cc1ccc(-c2nc3cc(Nc4ccc(N5CCOCC5)c(CN5CCCC5)n4)ncc3s2)cc1` [Example 21, 4-(6-{[5-(Morpholin-4-yl)-6-[(pyrrolidin-1-yl)methyl]pyridin-2-yl]amino}-[1,3]thiazolo[5,4-c]pyridin-2-yl)benzonitrile], for which the IC50 was less than 100 nM.

With `Cc1cccnc1-c1nc2cc(Nc3cccc(N4C[C@H](C)N(C)[C@@H](C)C4)n3)ncc2s1` [Example 102, N-[2-(3-Methylpyridin-2-yl)-[1,3]thiazolo[5,4-c]pyridin-6-yl]-6-[(3S,5S)-3,4,5-trimethylpiperazin-1-yl]pyridin-2-amine], the IC50 lay in the range of 100 to 1000 nM.

Turning to `Cc1ccc(N2C[C@@H]3C[C@H]2CN3C)nc1Nc1cc2nc(-c3ncccc3C)sc2cn1` [Example 284, 3-methyl-6-[(1S,4S)-5-methyl-2,5-diazabicyclo[2.2.1]heptan-2-yl]-N-[2-(3-methylpyridin-2-yl)-[1,3]thiazolo[5,4-c]pyridin-6-yl]pyridin-2-amine], the IC50 was 100 to 1000 nM.

As for `Cc1ccc(Nc2cc3nc(-c4cccc(F)c4)sc3cn2)nc1CN1CCCC1` [Example 34], the IC50 is less than 100 nM.

As to `CN1C[C@@H]2C[C@H]1CN2c1cncc(Nc2cc3nc(-c4cccc(C(=O)N5CCCC5)c4)sc3cn2)n1` [Example 147, 6-[(1S,4S)-5-Methyl-2,5-diazabicyclo[2.2.1]heptan-2-yl]-N-{2-[3-(pyrrolidine-1-carbonyl)phenyl]-[1,3]thiazolo[5,4-c]pyridin-6-yl}pyrazin-2-amine], the IC50 was less than 100 nM.

As to `CN1C[C@@H]2C[C@H]1CN2c1ccnc(Nc2cc3nc(-c4cccc(S(C)(=O)=O)c4)sc3cn2)n1` [Example 244, N-[2-(3-Methanesulfonylphenyl)-[1,3]thiazolo[5,4-c]pyridin-6-yl]-4-[(1S,4S)-5-methyl-2,5-diazabicyclo[2.2.1]heptan-2-yl]pyrimidin-2-amine], the IC50 was in the range of 100 to 1000 nM.

With `Cc1cccnc1-c1nc2cc(Nc3ccc(C4CCOCC4)c(N4C[C@@H]5C[C@H]4CN5C)n3)ncc2s1` [Example 247, 6-[(1S,4S)-5-Methyl-2,5-diazabicyclo[2.2.1]heptan-2-yl]-N-[2-(3-methylpyridin-2-yl)-[1,3]thiazolo[5,4-c]pyridin-6-yl]-5-(oxan-4-yl)pyridin-2-amine], the IC50 was less than 100 nM.

As to `COC1CCN(c2nc3cc(Nc4cc(C)cc(O[C@H]5CCNC5)n4)ncc3s2)CC1` [Example 190, N-[2-(4-Methoxypiperidin-1-yl)-[1,3]thiazolo[5,4-c]pyridin-6-yl]-4-methyl-6-((3S)-pyrrolidin-3-yloxy)pyridin-2-amine], the IC50 was less than 100 nM.

Take `c1cc(-c2nc3cc(Nc4nccc(N5C[C@@H]6C[C@H]5CN6)n4)ncc3s2)ccn1` [Example 241, 4-[(1S,4S)-2,5-Diazabicyclo[2.2.1]heptan-2-yl]-N-[2-(pyridin-4-yl)-[1,3]thiazolo[5,4-c]pyridin-6-yl]pyrimidin-2-amine]: the IC50 is less than 100 nM.

As for `Fc1cccnc1-c1nc2cc(Nc3ccc(N4CCOCC4)c(CN4CCCC4)n3)ncc2s1` [Example 8, N-[2-(3-Fluoropyridin-2-yl)-[1,3]thiazolo[5,4-c]pyridin-6-yl]-5-(morpholin-4-yl)-6-[(pyrrolidin-1-yl)methyl]pyridin-2-amine], the IC50 is less than 100 nM.

For `Cc1cccnc1-c1nc2cc(Nc3ccc(C4CCOCC4)c(N4C[C@@H]5C[C@H]4CN5)n3)ncc2s1` [Example 246, 6-[(1S,4S)-2,5-Diazabicyclo[2.2.1]heptan-2-yl]-N-[2-(3-methylpyridin-2-yl)-[1,3]thiazolo[5,4-c]pyridin-6-yl]-5-(oxan-4-yl)pyridin-2-amine], the IC50 was less than 100 nM.

Regarding `Cc1cccnc1-c1nc2cc(Nc3cccc(N4CC5CCC(C4)N5C)n3)ncc2s1` [Example 107, 6-{8-Methyl-3,8-diazabicyclo[3.2.1]octan-3-yl}-N-[2-(3-methylpyridin-2-yl)-[1,3]thiazolo[5,4-c]pyridin-6-yl]pyridin-2-amine], the IC50 is less than 100 nM.

The assay is the same for the next values; noted with them: HPK1 ADP-Glo assay, low ATP (10 μM ATP, 2 nM HPK1); read-out: Biochemical Potency (low ATP).
`Cc1cccnc1-c1nc2cc(Nc3cccc(C4(O)C[C@@H]5CC4CN5)n3)ncc2s1` (stereo partly drawn) [Example 314, 5-{6-[2-(3-methyl-2-pyridyl)-3-thia-1,5-diaza-6-indenylamino]-2-pyridyl}-2-azabicyclo[2.2.1]heptan-5-ol]: the IC50 was less than 100 nM.

For `Cc1cccnc1-c1nc2cc(Nc3ccc4c(n3)[C@@H](N)CCC4)ncc2s1` [Example 583], the IC50 is less than 100 nM.

Consider `CN1C[C@@H]2C[C@H]1CN2c1nccc(Nc2cc3nc(-c4cccc(C(C)(C)O)c4)sc3cn2)n1` [Example 419], for which the IC50 is less than 100 nM.

For the molecule `Cc1cccnc1-c1nc2cc(Nc3cc(C4CCNC4)nc(N4CCC(F)(F)C4)n3)ncc2s1` (stereo not drawn) [Example 319, [2-(3,3-difluoro-1-pyrrolidinyl)-6-(3-pyrrolidinyl)-4-pyrimidinyl][2-(3-methyl-2-pyridyl)-3-thia-1,5-diaza-6-indenyl]amine], the IC50 is 100 to 1000 nM.

In the case of `CC(C)(O)c1cc(-c2nc3cc(Nc4cnc(C5CCOCC5)c(N5C[C@@H]6C[C@H]5CN6)n4)ncc3s2)ccn1` [Example 303, 2-{4-[6-({6-[(1S,4S)-2,5-diazabicyclo[2.2.1]heptan-2-yl]-5-(oxan-4-yl)pyrazin-2-yl}amino)-[1,3]thiazolo[5,4-c]pyridin-2-yl]pyridin-2-yl}propan-2-ol], the IC50 was less than 100 nM.

The record behind these values is patent publication US12649751B2 (Arcus Biosciences, Inc., priority 2022, dated 2026).
